# In patent US20050245508A1, “Treatment of malignant gliomas with TGF-beta inhibitors” (SCIOS, Inc., priority 2003, published 2005):
# Experiments:
# LN-308 targets = assay: 51Cr release lysis assay, PBL or T cells precultured with irradiated glioma cells; format: cell-based, human; settings: preexposure 1 μM during coculture with irradiated glioma cells, 4 h 51Cr release, FIG. 3A
# Description: (§1) FIG. 3. Modulation of allogeneic anti-glioma immune responses by Compound No. 79 involves TGF-β antagonism. A. The lytic activity against LN-308 targets of PBL (squares) or purified T cells (triangles) preincubated with irradiated LN-308 cells in the absence (open symbols) or presence (filled symbols) of Compound No. 79 (1 μM) was determined in ^51Cr release assays. B-D. PBL were cultured in the absence (left) or presence (right) of irradiated LN-308 cells for 5 days. The cultures contained Compound No. 79 (1 μM) (filled bars) or not (open bars). Subsequently these effector cells were cocultured for 24 h with fresh non-irradiated LN-308 cells in the absence of Compound No. 79. The release of IFN-γ (B), TNF-α (C) or IL-10 (D) was assessed by Elispot assay. Data are expressed as cytokine-producing cells per 5×10^5 effector cells (n=3, *p<0.05, **p<0.01, t-test, effect of Compound No. 79). […]
# HLA-A2-mismatched PBL or T cells (107/25 cm2 flask) were cocultured with 106 irradiated (30 Gy) glioma cells for 5 days. […] The maximum 51Cr release was determined by addition of NP40 (1%). After 4 h the supernatants were transferred to a Luma-PlateTM-96 (Packard, Dreieich, Germany) and measured. The percentage of 51Cr release was calculated as follows: 100×([experimental release−spontaneous release]/[maximum release−spontaneous release]).
# [1] = system: splenocytes / LAK cells against SMA-560; assay: Ex vivo immune effector assays, splenocytes of glioma-bearing mice; format: in vivo, VM/Dk mice
# Description: FIG. 4. Compound No. 79 inhibits the growth of syngeneic SMA-560 experimental gliomas in vivo and promotes immune activation. A. VM/Dk mice received an intracranial injection of 5×10^3 SMA-560 cells. Three days later treatment with Compound No. 79 was initiated, and survival was monitored. B. The animals were treated as in A, but were sacrificed on day 10 to obtain splenocytes. IFN-γ release at 24 h was assessed by Elispot. Data are expressed as cytokine-producing cells per 10^6 effector cells. C. The splenocytes were stimulated with IL-2 for 10 days to generate LAK cells. Their lytic activity was measured by ^51Cr release using SMA-560 as target cells (vehicle, open squares; Compound No. 79, filled squares) (*p<0.05, t-test).
# IL-10, TNF-α and IFN-γ release by immune effector cells was assessed by Elispot assay in a multiscreen-HA 96 well plate (Millipore, Eschborn, Germany), coated with corresponding anti-human capture antibodies (Becton Dickinson). Briefly, 5×10^4 glioma cells were cocultured for 24 h with 105, 2.5×105 or 5×105 HLA-A2-mismatched, prestimulated (5 days) PBL. The cells were removed using double-distilled water, and captured cytokines were visualized using biotinylated antibodies and streptavidin-alkaline phosphatase (Becton Dickinson). Spots were counted on an Elispot reader system (AID, Straβberg, Germany). […]
# LN-308 glioma cells = assay: Flow cytometric cell cycle analysis; format: cell-based, human; settings: 0.01, 0.1 or 1 μM, 48 h, data not shown
# Description: (§2) The adherent glioma cells were detached nonenzymatically using cell dissociation solution (Sigma). Cell cycle analysis was performed by using fixed and permeabilized glioma cells (70% ethanol). RNA was digested with RNase A (Life Technologies, Inc.). DNA was stained with propidium iodide (50 μg/ml).
# [2] = system: HLA-mismatched PBL cocultured with LN-308 cells; assay: Cytokine release by immune effector cells, Elispot; format: cell-based, human; settings: 1 μM
# Description: as §1
# IL-10, TNF-α and IFN-γ release by immune effector cells was assessed by Elispot assay in a multiscreen-HA 96 well plate (Millipore, Eschborn, Germany), coated with corresponding anti-human capture antibodies (Becton Dickinson). […] Spots were counted on an Elispot reader system (AID, Straβberg, Germany). […]
# Smad2 phosphorylation = assay: Immunoblot of p-Smad2 and total Smad2/3 in glioma cells; format: cell-based
# Description: FIG. 2. Abrogation of autocrine TGF-β signaling in glioma cells by Compound No. 79. A. The cells were seeded at 10^4 cells/well in 96 well plates and cultured in the absence or presence of Compound No. 79 for 48 h in serum-free medium. Growth was assessed by [methyl-^3H]-thymidine incorporation at 48 h (*p<0.05, t-test). B. Lysates from untreated glioma cells or cells preexposed to Compound No. 79 (1 μM) for 24 h or exposed to TGF-b2 (5 ng/ml) for 1 h or both were assessed for the levels of p-Smad2 or total Smad2/3. Note that the antibodies were specific to p-Smad2 and total Smad 2 and 3, respectively.
# The levels of phosphorylated Smad2 (p-Smad2) protein levels were analyzed by immunoblot using 20 μg of protein per lane on a 12% acrylamide gel. After transfer to a PVDF membrane (Amersham, Braunschweig, Germany), the blots were blocked in PBS containing 5% skim milk and 0.05% Tween 20, and incubated overnight at 4° C. with p-Smad2 antibody (2 μg/ml). Visualization of protein bands was accomplished using horseradish peroxidase-coupled secondary antibody (Sigma) and enhanced chemiluminescence (Amersham). Total Smad2/3 levels were assessed using a specific Smad2/3 antibody (Becton-Dickinson).
# SMA-560 glioma cells = assay: Flow cytometric cell cycle analysis; format: cell-based, murine; settings: 0.01, 0.1 or 1 μM, 48 h, data not shown
# Description: as §2
structure (smiles),measurement,setting,value
Fc1ccc(Cl)cc1-c1nc(Nc2ccncc2)c2nccnc2n1 [Compound No. 79],lytic activity of HLA-A2-mismatched PBL or purified T cells,LN-308 targets,significantly enhanced
same,animals with increase over background of IFN-γ release by splenocytes,"[1]; Elispot, day 7 after initiation of treatment, control 1 of 5, FIG. 4B",3 of 5
same,lytic activity of LAK cells against SMA-560 targets,"[1]; splenocytes stimulated with IL-2 for 10 days, 51Cr release, FIG. 4C",enhanced lytic activity
same,cell cycle arrest,LN-308 glioma cells,no specific type of cell cycle arrest
same,IFN-γ release,"[2]; PBL primed in presence of LN-308 cells, FIG. 3B",restored the IFN-γ release to levels comparable to PBL pre-cultured in the absence of LN-308 cells
same,IL-10 release,"[2]; unstimulated and glioma cell-primed cultures, FIG. 3D",reduced
same,total cellular Smad2/3 levels,"Smad2 phosphorylation; 1 μM 24 h, FIG. 2B",without altering
same,Smad2 phosphorylation by endogenous or exogenous TGF-β,"Smad2 phosphorylation; 1 μM 24 h preexposure, TGF-β2 5 ng/ml 1 h, FIG. 2B",interfered with Smad2 phosphorylation
same,pSmad phosphorylation signal in untreated glioma cells,Smad2 phosphorylation; no exogenous TGF-β,abolished
same,cell cycle arrest,SMA-560 glioma cells,no specific type of cell cycle arrest
